Data set [1] in a line: In vitro degradation studies of the thioamide derivative of fipronil in CH3CN/H2O under degradation agents. The data set is classed as physicochemical. As for the experimental part: A solution containing thioamide derivative of fipronil in a solution of CH3CN/H2O (50:50 v/v) and the solution was subjected to the following degradation agents: 0.5 N HCl; 0.5 N NaOH; 5% H2O2; UV light; fluorescent light and heat (65° C.).

Data set [2] can be described thus: Concentration in the fur of a dog after topical spot-on solution of the thioamide. The data set is classed as in vivo. The following applies: 0.1 ml/kg. As for the experimental part:
A topical spot-on solution of the thioamide solution containing 100 mg/ml of thioamide and diethylene glycol monoethyl ether was applied to the fur of a dog at the dose rate of 0.1 ml/kg of body weight. The concentration of fipronil in the fur was measured on day 2 and day 7.

Data set [3] can be described thus: Concentration in blood plasma of dogs after oral solution of the thioamide derivative of fipronil. In kind it is in vivo. The procedure:
An oral formulation (solution) comprising 100 mg/ml of thioamide derivatives of fipronil dissolved in 60:40 propylene glycol: glycerol formal was administered to dogs and the concentration of fipronil in blood plasma measured at 6 hours, day 1, day 2, and day 7 and is presented below

`NC(=S)c1nn(-c2c(Cl)cc(C(F)(F)F)cc2Cl)c(N)c1[S+]([O-])C(F)(F)F` (stereo not shown) [thioamide derivative of fipronil]: the “stability in acid” value in data set [1] (0.5 N HCl) is recorded as “Thioamide derivative stable in acid with only”. The “amounts of fipronil formed” value in data set [1] (0.5 N HCl, 4 days) is reported as “negligible”. For the same molecule, the thioamide derivative degraded in data set [1] (0.5 N HCl, in 4 days, solution of CH3CN/H2O (50:50 v/v)) is on record as 2.7%; in data set [1] (0.5 N NaOH, in 1 hour, CH3CN/H2O (50:50 v/v)), 95% if the thioamide derivative degraded in 1; in data set [1] (5% H2O2, in 1.5 hours, CH3CN/H2O (50:50 v/v)), 100% of the thioamide derivation degraded in; in data set [1] (UV light, in 1 hour, CH3CN/H2O (50:50 v/v)), 24% of the thioamide derivation degraded in 1. In addition, the fipronil formed result in data set [1] (0.5 N NaOH, 1 hour) is on record as “hour, but no fipronil was formed”; in data set [1] (5% H2O2, 1.5 hours), 1.5 hours but no fipronil was formed; fipronil. For the same molecule, in data set [1] (5% H2O2, 1.5 hours), the fipronil sulfone formed entry is reported as “sulfone was formed”. Further, the degraded to fipronil in data set [1] (Fluorescent light, in 4 days, CH3CN/H2O (50:50 v/v)) is recorded as 23% degraded to fipronil in 4 days; in data set [1] (Heat (65° C.), in 4 days, CH3CN/H2O (50:50 v/v)), 20% of the thioamide derivation degraded to. In addition, the concentration at 2 day worked out at 363000 ng/g in data set [2] (Day 2, topical spot-on 100 mg/ml thioamide in diethylene glycol monoethyl ether) and 129000 ng/g in data set [3] (dog, plasma, Day 2, oral solution 100 mg/ml thioamide derivative). Also, the concentration at 7 day in data set [2] (Day 7, topical spot-on 100 mg/ml thioamide in diethylene glycol monoethyl ether) was found to be 59300 ng/g; in data set [3] (dog, plasma, Day 7, oral solution 100 mg/ml thioamide derivative), 54600 ng/g. Moreover, the “concentration in blood plasma” value in data set [3] (Pre-treatment, oral solution 100 mg/ml thioamide derivative in 60:40 propylene glycol:glycerol formal) is 0.0 µg/g. This molecule also showed a concentration at 6 h in data set [3] (dog, plasma, Day 0.25 (6 hours), oral solution 100 mg/ml thioamide derivative) of 262000 ng/g. In data set [3] (dog, plasma, Day 1, oral solution 100 mg/ml thioamide derivative), this molecule gave a concentration at 1 day of 162000 ng/g. In data set [3] (oral solution), the “in-vivo degradation into fipronil” value is given as “degrades into fipronil in-vivo in amounts that are sufficient for efficacy”.

The values are drawn from patent publication US20050234119A1, “Antiparasitical agents and methods for treating, preventing and controlling external parasites in animals” (priority 2004, published 2005).
